For 7 compounds, EC50 and inhibition results are on record in patent US20180153830A1, “SELECTIVE INHIBITORS OF UNDIFFERENTIATED CELLS” (Yissum Research Development Company of the Hebrew …, priority 2012, published 2018).

Read-outs that look alike come from different tables or passages of the source.

As usually defined, the EC50 is the midpoint of the concentration-response curve. As usually defined, the inhibition is the drop in the measured response relative to a control, in per cent.

Common to all, as to assay type: cell-based
One assay has as its system BJ-fibroblasts. The experiment in a line: CellTiter-Glo counter-screen, BJ-fibroblasts. The note with it: Homo sapiens; for EC50: 24 hours, differentiated cells. The protocol:
The cervical carcinoma cell line HeLa, teratocarcinoma cell line NTERA-2, and immortalized BJ fibroblast cell line, were cultured in DMEM supplemented with 10% FBS, penicillin (50 U/ml) and streptomycin (50 μg/ml).
(§1) 696 confirmed hits from the confirmation screen were tested for profiling in a panel of 13 different cell types, using the same screening protocol described above (except in the case of embryonic stem cell-derived neural stem cells (NSCs) and mesenchymal stem cells (MSCs), for which the protocol is described below). As discussed below, compounds were tested either in dose-dependent multiple concentration manner or in single concentration manner. CSES2 and CSES2-SO2/3 cell lines and the early endodermal progenitors derived from this cell line (CSES2-SO2/3-differentiated) were screened at 8 concentrations ranging from 50 μM to 23 nM with 1:3 serial dilution steps. BJ-iPS28 cell line and the BJ fibroblasts from which it was derived were screened at 6 concentrations ranging from 50 μM to 200 nM with 1:3 serial dilution steps. Cardiomyocytes were screened in one concentration of 20 μM. HeLa and NTERA-2 cell lines were screened in duplicates of 20 μM. Kelly and Huh-7 were screened in triplicates of 20 μM. Hepatocytes were screened in duplicates of 20 μM in the original 96-well plates in which the cells arrived (40,000 cells per well, in 160 μl medium, the volumes of all reagents involved were adjusted accordingly). MSCs and NSCs were screened in duplicates of 12.5 μM.
(§2) In order to identify highly-selective cytotoxic inhibitors of hPSCs, the 696 cytotoxic inhibitors of hPSCs identified as described in Example 1 were counter-screened as described in the Materials and Methods section against other cell types, representative of all germ layers and developmental stages. Importantly, many of these cell types were differentiated from human ES or iPS cells. The screened cell types included ES-derived neural stem cells (NSCs), ES-derived mesenchymal stem cells (MSCs), ES-derived endodermal progenitor cells, ES-derived hepatocytes, iPS-derived cardiomyocytes, iPS-derived fibroblasts of origin (BJ fibroblasts), and three cancer cell lines: neuroblastoma (Kelly), cervical cancer (HeLa) and hepatocarcinoma (Huh7). The cell types and their relationship to stem cells are depicted schematically in FIG. 14.
In addition, the identified compounds were screened at 6 concentrations using the BJ-fibroblasts from which the iPS line BJ-iPS28 had been derived, and reliable EC50 values were thereby calculated for both the iPS cells and for their somatic cells of origin.

In assay [1] the test system is CSES2-SO2/3 ES-derived endodermal progenitors. The experiment in a line: CellTiter-Glo counter-screen, endodermal progenitors. The following applies: Homo sapiens; for EC50: 24 hours, differentiated cells. The protocol:
CSES2-SO2/3 embryonic stem cells were differentiated to endodermal progenitors using an established protocol [Duan et al. Stem Cells 28:674-686 (2010)]. Undifferentiated cells were seeded at a density of 10,000 cells/cm^2 on MatrigelT™-coated plates, with mTeSR1 medium. The next day (day 1), medium was replaced to serum-free RPMI-1640, supplemented with 2 mM glutamine, 100 ng/ml Activin A 60 μg/ml of G418 geneticin sulfate and 0.3 μg/ml of puromycin. From day 3 to day 8, the same medium was also supplemented with 1×B27 supplement (Invitrogen) and 0.5 mM sodium butyrate. The cellular identity of the cells as endodermal progenitors was verified by quantifying the percentage of green SOX17+ cells, and the percentage of CXCR4+ cells, using a Guava® EasyCyte™ Plus flow cytometry system (Millipore). Further validation was obtained by fluorescence-staining of the cells with an antibody against the early endodermal surface marker CXCR4 (CXCR4-PE antibody, 1:25; BD Biosciences). The percentage of CXCR4+ cells was also quantified using the Guava® EasyCyte™ Plus flow cytometry system.
as §1, with “CSES2 and CSES2-SO2/3 cell lines and the early endodermal progenitors derived from this cell line (CSES2-SO2/3-differentiated) were screened at 8 concentrations ranging from 50 μM to 23 nM with 1:3 serial dilution steps.” left out
as §2
The identified compounds were screened at 8 concentrations using both the undifferentiated red cells and the differentiated green cells, and reliable EC50 values were thereby calculated for the genetically identical differentiated and undifferentiated cells.
On the technique in general: In ATP-based viability assays light output follows the ATP content of the culture.

Assay [2] relates to ES-derived mesenchymal stem cells. The experiment in a line: CellTiter-Glo counter-screen, mesenchymal stem cells. The following applies: Homo sapiens, at 20 μM (table title).
For assay [3], the system named is CSES2 human embryonic stem cells. Put plainly: CellTiter-Glo luminescent cell viability screen, CSES2. The following applies: for inhibition at 20 µM: pluripotent stem cells. As to the method: 5,000 CSES2 cells were plated in 50 μl per well of mTeSR1 medium into black 384-well clear-bottom plates (Falcon BD) pre-coated with Matrigel™ using WellMate cell dispenser (Matrix, Hudson, N.H.). 24 hours after plating, medium was replaced with 25 μl of fresh medium and 25 μl of 40 μM compound medium solutions in 1% DMSO from the intermediate compound dilution plates. The plates were incubated at 37° C., in a 5% CO2 atmosphere, for the entire duration of the screen, apart from the time required for liquid handling. […] 50 μl of CellTiter-Glo® reagent was added to each well of the assay plates and fully mixed. After incubation at room temperature for 15 minutes, 25 μl of liquid was transferred from each well into a white opaque-bottom 384-well plate (PerkinElmer), and luminescence was measured using an EnVision® plate reader (PerkinElmer). 16 neutral control wells (0.5% DMSO) and 8 positive control wells (5 μM amsacrine hydrochloride were used to normalize the compound effect. All liquid transfer steps were handled with a Biomek® FXP Laboratory Automation Workstation (Beckman Coulter, Fullerton, Calif.) and Muitidrop Combi liquid dispenser (Thermo Fisher, Waltham, Mass.). An Assay Analyzer (Genedata, Basel, Switzerland) was used for data pattern correction and calculation. The Spotfire software (Spotfire, Somerville, Mass.) was used for data illustration.
The compounds identified as hits from the primary screen were retested at a concentration of 20 μM against three pluripotent stem cell lines (CSES2, H9 and CSES2-SO2/3) for confirmation screens.
as §1
The raw intensity data for each well were background-corrected by subtraction of the median intensities across all positive control wells on the same plate, and used to calculate the inhibitory effect of each compound per cell line. A Genedata Assay Analyzer and Condoseo were used for data pattern correction, calculation and IC50 curve fitting. A Z′ factor was determined for each plate.

Assay [4] concerns ES-derived neural stem cells. The experiment in a line: CellTiter-Glo counter-screen, neural stem cells. The following applies: Homo sapiens, Neural stem cell.
Setting [5] is: 24 h, read-out: EC50 CSES2 24 hours.
Setting [6] is: 48 h, read-out: EC50 CSES2 48 hours.

As for `O=C(NN(C(=O)c1ccccc1)c1ccccc1)c1ccc(Cl)cc1` [PluriSIn #14], the 50% effective concentration (EC50) was more than 50 µM with BJ-fibroblasts, more than 50 µM in assay [1], 2.03 µM in assay [3] (setting [5]) and 2.91 µM in assay [3] (setting [6]). Besides, the inhibition at 20 µM is -18.6% with BJ-fibroblasts, 18.8% in assay [1] and 90.1% in assay [3]. In addition, the inhibition at 12.5 µM in assay [2] was -1.5%; in assay [4], 18.4%.

`C/C(=N\O)NNc1ccc(Cl)cc1` [PluriSIn #9]: the concentration for a half-maximal effect (EC50) with BJ-fibroblasts is more than 50 µM; in assay [1], more than 50 µM; in assay [3] (setting [5]), 7.96 µM; in assay [3] (setting [6]) it was 2.16 µM. Moreover, the inhibition at 20 µM was -22.7% in the assay on BJ-fibroblasts, 11.9% in assay [1] and 102% in assay [3]. Besides, the inhibition at 12.5 µM in assay [2] is -12.6%; in assay [4] it was 28.9%.

Turning to `O=S(=O)(NNc1ccccc1)c1ccc2ccccc2c1` [PluriSIn #5], the EC50 is more than 50 µM in the assay with BJ-fibroblasts, more than 50 µM in assay [1], 3.06 µM in assay [3] (setting [5]) and 1.27 µM in assay [3] (setting [6]). For the same compound, the inhibition at 20 µM was -7.5% with BJ-fibroblasts, 12.9% in assay [1] and 88.2% in assay [3]. The results for the inhibition at 12.5 µM in assay [2] and in assay [4] were 6.4% and 60.9%, respectively.

With `O=C(NCCc1ccc(O)cc1)c1ccc(N2CCCCC2)cc1` [PluriSIn #4], the concentration for a half-maximal effect (EC50) in the assay with BJ-fibroblasts is more than 50 µM; in assay [1], more than 50 µM; in assay [3] (setting [5]), 1.11 µM; in assay [3] (setting [6]), 0.594 µM. In addition, the figures for the inhibition at 20 µM (in the assay on BJ-fibroblasts; in assay [1]; in assay [3]) were -22.9%, -1.1% and 84.7%, respectively. Further, the inhibition at 12.5 µM in assay [2] is -8.1%; in assay [4], 15.5%.

Take `C(=N\C1CCC(CC2CCCCC2)CC1)/OC1CCOC1` (centres unmarked) [PluriSIn #15]: the 50% effective concentration (EC50) in the assay with BJ-fibroblasts is more than 50 µM; in assay [1] it was more than 50 µM; in assay [3] (setting [5]) it was 2.98 µM; in assay [3] (setting [6]), 3.27 µM. Besides, the inhibition at 20 µM is -6.1% with BJ-fibroblasts, 2.1% in assay [1] and 77.6% in assay [3]. Further, the inhibition at 12.5 µM came to 12% in assay [2] and 70.3% in assay [4].

On to `CCN(CC)C(=O)C(=O)c1c(-c2ccccc2)[nH]c2c1sc1ccccc12` [PluriSIn #12], for which the EC50 in the assay with BJ-fibroblasts was more than 50 µM; in assay [1] it was more than 50 µM; in assay [3] (setting [5]), 6.85 µM; in assay [3] (setting [6]) it was 5.1 µM. Besides, the inhibition at 20 µM with BJ-fibroblasts was -8.4%; in assay [3] it was 93%. Moreover, the figures for the inhibition at 12.5 µM in assay [2] and in assay [4] were -7.3% and 9.9%, respectively.

With `O=C(Nc1ccccc1)n1cc(F)c(=O)[nH]c1=O` [PluriSIn #2], the EC50 in the assay with BJ-fibroblasts was more than 50 µM; in assay [1] it was more than 50 µM; in assay [3] (setting [5]) it was 2.03 µM; in assay [3] (setting [6]), 2.63 µM. Also, the inhibition at 20 µM with BJ-fibroblasts was -8.3%; in assay [1], -8.3%; in assay [3] it was 84%. For the same compound, the inhibition at 12.5 µM is -1.4% in assay [2] and 53.6% in assay [4].
